Data taken from publication doi:10.1101/2024.06.10.598330v1 (biorxiv, 2024).

Legend:
Vv4g02123 = settings: 20 μM SAM, pH 8.0, 37 °C; substrate inhibition fit
[1] = test system: 'Concord' ortholog of 4g02123; test: MTase-Glo luminescence methyltransferase assay; format: biochemical, Vitis labrusca; settings: 20 μM SAM, pH 8.0, 37 °C
Vv4g02169 = biological target: T1, Vv4g02169 (Vitis vinifera, UniProt D7SNV7); test: MTase-Glo luminescence methyltransferase assay; format: biochemical; settings: 150 μM SAM, pH 8.0, 37 °C
T1 sequence (D7SNV7 1-364): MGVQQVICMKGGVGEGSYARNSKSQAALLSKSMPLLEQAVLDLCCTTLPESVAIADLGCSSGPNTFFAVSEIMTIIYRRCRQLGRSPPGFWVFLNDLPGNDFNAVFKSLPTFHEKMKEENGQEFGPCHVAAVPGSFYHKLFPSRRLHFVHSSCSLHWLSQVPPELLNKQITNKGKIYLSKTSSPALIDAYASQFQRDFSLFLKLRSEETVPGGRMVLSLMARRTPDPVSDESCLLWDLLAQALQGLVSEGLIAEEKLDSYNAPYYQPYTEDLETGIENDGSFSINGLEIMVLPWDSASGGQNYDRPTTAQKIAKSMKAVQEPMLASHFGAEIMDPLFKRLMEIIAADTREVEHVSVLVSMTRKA

Compound | Km (Vv4g02123) [µM] | Km [1] [µM] | Km (Vv4g02169) [µM] | Km ([1]; substrate inhibition fit) [µM]
CNc1ccccc1C(=O)O [N-methyl AA] | 12 | 120 | – | –
Nc1ccccc1C(=O)O [anthranilate] | – | 47 | 160 | –
O=C(O)c1ccccc1 [benzoic acid] | – | 23 | – | –
O=C(O)c1ccccc1O [salicylic acid] | – | – | – | 3.8
